Here are results for three compounds from ChEMBL document CHEMBL5579807, “Development of STING degrader with double covalent ligands” (Bioorg Med Chem Lett, 2024).

Common to all, as to type: cell-based
Experiment [1] has as its target T1, E3 ubiquitin-protein ligase RNF126/Stimulator of interferon genes protein (Homo sapiens) (UniProt Q86WV6+Q9BV68). As to the kind of experiment: PROTAC activity at RNF126/STING in human THP-1 cells assessed as induction of STING degradation upto 30 uM incubated for 24 hrs by Western blot analysis. On the technique in general: Immunoblotting shows a protein as a band on a membrane.

The target in experiment [2] is T2, Protein cereblon/Stimulator of interferon genes protein (Homo sapiens) (UniProt Q96SW2+Q86WV6). As to the kind of experiment: PROTAC activity at CRBN/STING in human THP-1 cells assessed as induction of STING degradation incubated for 24 to 48 hrs by Western blot analysis. As to conditions: dose 3-30 µM, time 24-48 hrs.
The target of experiment [3] is T2, Protein cereblon/Stimulator of interferon genes protein (Homo sapiens). As to the kind of experiment: PROTAC activity at CRBN/STING in human THP-1 cells assessed as induction of STING degradation at 3 to 30 uM incubated for 6 hrs by Western blot analysis. As to conditions: dose 3-30 µM.
Experiment [4] deals with T1, E3 ubiquitin-protein ligase RNF126/Stimulator of interferon genes protein (Homo sapiens). As to the kind of experiment: PROTAC activity at RNF126/STING in human THP-1 cells assessed as induction of STING degradation at 3 uM incubated for 18 hrs in the presence of MG132 by Western blot analysis.
Experiment [5] shares this target. As to the kind of experiment: PROTAC activity at RNF126/STING in human THP-1 cells assessed as induction of STING degradation at 3 to 30 uM incubated for 6 to 48 hrs by Western blot analysis. The note with it: dose 3-30 µM, time 6-48 hrs.
The target is the same in experiment [6]. As to the kind of experiment: PROTAC activity at RNF126/STING in human THP-1 cells assessed as induction of STING degradation at 10 uM incubated for 24 hrs by Western blot analysis.
Experiment [7] has the same target. As to the kind of experiment: PROTAC activity at RNF126/STING in human THP-1 cells assessed as induction of STING degradation at 3 uM incubated for 18 hrs in the presence of MLN7243 by Western blot analysis.
Experiment [8] concerns the target Stimulator of interferon genes protein (Homo sapiens) (UniProt Q86WV6). As to the kind of experiment: Inhibtion of STING in 293-Dual hSTING-R232 cells co-expressing interferon beta luciferase reporter assessed as inhibition of interferon response incubated for 16 hrs in presence of cGAMP by luminescence based luciferase gene reporter assay. As to conditions: dose 1-30 µM. Background: Reporter assays use an easily measured gene product as a stand-in for the process of interest.

The source made the active and inactive calls. The calls are words filed in the database; no cut-off is given here.

T1 sequence (Q86WV6 whole entry, looked up): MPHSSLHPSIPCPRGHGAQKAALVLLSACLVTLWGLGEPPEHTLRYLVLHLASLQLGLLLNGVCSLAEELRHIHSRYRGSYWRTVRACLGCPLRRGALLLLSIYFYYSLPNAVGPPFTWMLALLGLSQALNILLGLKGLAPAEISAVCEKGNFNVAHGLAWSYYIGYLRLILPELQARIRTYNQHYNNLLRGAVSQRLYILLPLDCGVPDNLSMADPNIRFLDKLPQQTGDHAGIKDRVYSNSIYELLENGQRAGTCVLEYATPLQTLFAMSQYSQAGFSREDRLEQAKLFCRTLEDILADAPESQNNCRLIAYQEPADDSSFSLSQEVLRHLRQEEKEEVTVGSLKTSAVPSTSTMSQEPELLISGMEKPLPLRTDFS
T1 sequence (Q9BV68 whole entry, looked up): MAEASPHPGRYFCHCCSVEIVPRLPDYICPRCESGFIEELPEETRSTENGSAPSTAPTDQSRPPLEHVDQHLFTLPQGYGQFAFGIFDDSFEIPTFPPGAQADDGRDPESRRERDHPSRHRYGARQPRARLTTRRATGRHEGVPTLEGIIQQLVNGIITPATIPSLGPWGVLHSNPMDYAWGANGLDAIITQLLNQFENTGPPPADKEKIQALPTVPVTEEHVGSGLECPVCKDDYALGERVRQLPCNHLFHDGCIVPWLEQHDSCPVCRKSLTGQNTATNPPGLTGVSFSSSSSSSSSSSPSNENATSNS
T2 sequence (Q86WV6 whole entry, looked up): as the sequence (Q86WV6 whole entry, looked up) above
T2 sequence (Q96SW2 whole entry, looked up): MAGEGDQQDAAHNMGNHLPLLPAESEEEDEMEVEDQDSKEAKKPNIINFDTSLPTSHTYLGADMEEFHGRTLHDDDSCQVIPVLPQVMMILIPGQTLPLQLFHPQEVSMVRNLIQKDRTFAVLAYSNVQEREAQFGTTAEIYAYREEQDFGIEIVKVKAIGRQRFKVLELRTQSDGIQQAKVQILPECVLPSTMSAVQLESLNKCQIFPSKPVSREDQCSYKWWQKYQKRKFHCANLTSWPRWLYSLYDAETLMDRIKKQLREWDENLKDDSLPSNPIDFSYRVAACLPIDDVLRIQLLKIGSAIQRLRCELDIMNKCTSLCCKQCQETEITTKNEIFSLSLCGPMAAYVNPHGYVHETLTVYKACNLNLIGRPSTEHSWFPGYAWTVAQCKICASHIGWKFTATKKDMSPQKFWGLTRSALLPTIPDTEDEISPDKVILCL
Chain of Stimulator of interferon genes protein (Homo sapiens) (Q86WV6 whole entry): as the sequence (Q86WV6 whole entry, looked up) above

With `COc1ccc(C(=O)/C=C/C(=O)Nc2ccc(NC(=O)c3ccc([N+](=O)[O-])o3)cc2)cc1`, the result in experiment [1] was Active.
As to `O=C(/C=C/C(=O)Nc1ccc(NC(=O)c2ccc([N+](=O)[O-])o2)cc1)NCCCCCCNc1cccc2c1C(=O)N(C1CCC(=O)NC1=O)C2=O` (stereo not drawn), in experiment [2], the Activity result is “Dose-Dependent Effect”. Besides, the result in experiment [3] was inactive.
As to `COc1ccc(C(=O)/C=C/C(=O)N2CCN(c3ccc(NC(=O)c4ccc([N+](=O)[O-])o4)cc3)CC2)cc1`, the outcome in experiment [4] and in experiment [7] was inactive. For the same compound, the result in experiment [5] and in experiment [6] was Active. Also, the inhibition result in experiment [8] was “Dose-Dependent Effect”.
